Patent US7741344B2, “Process for preparing purified S-BEL and R-BEL and compositions thereof” (Washington University in St. Louis, priority 2002, dated 2010)
pIC50: −log10 of the molar value.

Columns and labels:
recombinant human iPLA2γ = biological target: T1, recombinant human iPLA2γ (Homo sapiens, UniProt Q9NP80); experiment: Assay of iPLA2γ inhibition by BEL (Sf9 cell membranes, radiolabeled phospholipid substrate); format: biochemical
T1 construct: Recombinant full-length iPLA2γ was expressed in Sf9 cells; made in house; host or cells: Sf9 cells (washed membrane fraction, not purified)
T1 sequence (Q9NP80 1-782): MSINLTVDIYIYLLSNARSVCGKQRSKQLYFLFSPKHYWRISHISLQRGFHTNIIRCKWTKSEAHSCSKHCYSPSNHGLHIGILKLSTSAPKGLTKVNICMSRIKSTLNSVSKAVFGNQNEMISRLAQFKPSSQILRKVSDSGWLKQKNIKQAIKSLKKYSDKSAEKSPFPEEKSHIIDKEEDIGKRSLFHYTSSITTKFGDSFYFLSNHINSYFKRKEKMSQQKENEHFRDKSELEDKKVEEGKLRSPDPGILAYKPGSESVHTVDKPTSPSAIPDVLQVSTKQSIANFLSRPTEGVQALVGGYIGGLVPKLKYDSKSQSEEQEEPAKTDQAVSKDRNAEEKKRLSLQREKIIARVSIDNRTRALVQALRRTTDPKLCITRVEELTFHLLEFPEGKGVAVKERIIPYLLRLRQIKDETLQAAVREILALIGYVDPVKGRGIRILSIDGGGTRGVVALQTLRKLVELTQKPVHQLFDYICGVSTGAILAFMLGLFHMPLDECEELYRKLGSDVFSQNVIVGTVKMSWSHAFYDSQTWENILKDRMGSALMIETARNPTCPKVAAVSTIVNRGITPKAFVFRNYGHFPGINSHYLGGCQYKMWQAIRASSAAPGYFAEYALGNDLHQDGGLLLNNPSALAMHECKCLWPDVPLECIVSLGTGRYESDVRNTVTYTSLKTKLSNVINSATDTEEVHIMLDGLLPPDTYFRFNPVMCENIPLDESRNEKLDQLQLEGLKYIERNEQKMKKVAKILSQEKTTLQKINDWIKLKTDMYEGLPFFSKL
Method: Recombinant iPLA2 Enzymes—Recombinant iPLA2β was expressed and purified from Sf9 cells as previously described (35). Recombinant full-length iPLA2γ was expressed in Sf9 cells and the membrane fraction was washed and isolated as previously described (24).
Assay of iPLA2β and iPLA2γ Inhibition by BEL—Purified recombinant iPLA2β or Sf9 cell membranes containing recombinant iPLA2γ were incubated with (R) BEL, (S) BEL, racemic BEL, or ethanol vehicle for 3 mm at 22° C. in the presence of 100 mM Tris-HCl (pH 7.0) and 4 mM EGTA (for iPLA2β) or 100 mM Tris-acetate (pH 8.0) and 4 mM EGTA (for iPLA2γ). The concentration of BEL used for each test ranged from 0 to 16 μM. L-α-1-palmitoyl-2-[1^14C]-arachidonyl-phosphatidylcholine (5 μM final concentration) or L-α-1-palmitoyl-2-[1-^14C]-oleoyl-phosphatidylcholine (5 μM final concentration) in ethanol was then added to each sample and incubated at 37° C. for 2 min. Reactions were terminated by extraction of radiolabeled products into butanol, and reactants and products were separated by thin layer chromatography using Whatman LK6D 60 Å Silica Gel plates with petroleum ether/ethyl ether/acetic acid (70:30:1) as the mobile phase. Regions corresponding to the migration of a fatty acid standard visualized by iodine staining were scraped into vials and radioactivity was quantified by scintillation spectrometry.
Panel A—Purified recombinant iPLA2β (1 μg/ml) in 100 mM Tris-HCl, pH 7.3 containing 1 mM EGTA was preincubated at 22° C. for 3 mm in the presence of the indicated concentrations of (R)-, (S)-, or rac-BEL or ethanol vehicle alone (1% final concentration). Radiolabeled substrate (L-α-1-palmitoyl-2-[1-^14C]-arachidonyl-phosphatidylcholine, 5 μM final concentration) was then added to each reaction and incubated at 37° C. for 2 min. Reactions were terminated by extraction of remaining substrate and products into butanol, separation by TLC, and quantification of released radiolabeled fatty acid by scintillation spectrometry as described in Experimental Procedures. Results are representative of four separate tests. Panel B—Washed Sf9 cell membranes containing recombinant human iPLA2γ were preincubated for 3 min with the indicated concentrations of (R)-, (S)-, or racemic BEL or ethanol vehicle alone (1% final concentration) in 100 mM Tris-acetate, pH 8.0 containing 1 mM EGTA at 22° C. Radiolabeled substrate (L-α-1-palmitoyl-2-[1-^14C]-oleoyl-phosphatidylcholine, 5 μM final concentration) was then added to each reaction and incubated at 37° C. for 2 min. Reactions were terminated by extraction of remaining substrate and products into butanol, separation by TLC, and quantification of released radiolabeled fatty acid by scintillation spectrometry as described in “Experimental Procedures”. Results are representative of four separate tests.

[1] = test system: MAPK (ERK2) phosphorylation; experiment: AVP-induced MAPK phosphorylation in A-10 cells (Western); format: cell-based, rat; details: 5 μM, 15 min, 1 μM AVP; FIG. 9

O=C1OC(=CBr)CCC1c1cccc2ccccc12 (racemic) [rac-BEL, Racemic (E)-6-(bromomethylene)-3-(1-naphthalenyl)-2H-tetrahydropyran-2-one]
inhibitory potency on iPLA2γ relative to the enantiomers (recombinant human iPLA2γ; FIG. 4B): intermediate of that of (R)-BEL and (S)-BEL
pIC50 (recombinant human iPLA2γ; read-out: IC50 for iPLA2γ (range stated jointly for iPLA2β and iPLA2γ)): 5.52 to 6.30
AVP-induced phosphorylation of ERK2 [1]: not effected

O=C1O/C(=C/Br)CC[C@@H]1c1cccc2ccccc12 [(R)-BEL, (R)(E)-6-(bromomethylene)-3-(1-naphthalenyl)-2H-tetrahydropyran-2-one]
selectivity for inhibition of iPLA2γ (recombinant human iPLA2γ): 10 fold
inhibition of iPLA2γ, fold more potent than (S)-BEL (recombinant human iPLA2γ; 3 min preincubation, FIG. 4B): approximately 10 fold
selectivity for iPLA2γ than iPLA2β (recombinant human iPLA2γ; in words): approximately an order of magnitude more selective
AVP-induced phosphorylation of ERK2 [1]: not effected
